# Measured values reported in patent publication US5126057A, “Disinfecting with N,N'-dihaloimidazolidin-4-ones” (Auburn Research Foundation, priority 1991, dated 1992).
# Columns and labels:
# Assay type in all cases: physicochemical
# [1] = physchem; conditions: for solubility: water, solubility in water
# Experimental: In method (a) 47.4 grams (0.3 mole) of 2,2,5,5-tetramethylimidazolidine-4-thione was dissolved in 1.2 liters of 3 Normal sodium hydroxide solution (3.6 moles) in a 2 liter flask. The flask and its contents were cooled to 5° C. using an ice bath, and chlorine gas was bubbled into the mixture while stirring until the pH of the solution reached 7.0. The temperature of the mixture was not allowed to rise above 10° C. during this process. The N,N'-dichloroimidazolidin-4-one product precipitated as a white solid. Following addition of 800 milliliters of water to the flask, the solid product was recovered by suction filtration. The product was then purified by dissolving it in hexane, allowing the impurities and remaining water to settle, and recovery by evaporation of the volatile hexane layer which was separated from the impurity/water layer. The product yield was 53.9 grams or 85% of that theoretically expected. Elemental analysis of the product (1,3-dichloro-2,2,5,5-tetramethylimidazolidin-4-one) gave the following results: (calculated/found) % carbon 39.82/39.86, % hydrogen 5.73/5.50, % nitrogen 13.27/13.24, and % chlorine 33.59/32.88. […] Analysis of the product by proton NMR and infrared spectroscopy yielded the following results:
# 5.1 Grams (0.036 mole) of 2,2,5,5-tetramethylimidazolidin-4-one prepared as in example 2 was dissolved in 88 milliliters of 1 Normal sodium hydroxide solution (0.088 mole) in a 250 milliliter flask. While maintaining this mixture at 10° C. or below using an ice bath and stirring, 12.8 grams (0.08 mole) of liquid bromine was added dropwise. The product 1,3-dibromo-2,2,5,5-tetramethylimidazolidin-4-one precipitated from the mixture as a pale yellow solid. The product was recovered by suction filtration and purified by recrystallization from hexane. The product yield was 9.2 grams or 85% of that theoretically expected. Elemental analysis of the product (1,3-dibromo-2,2,5,5-tetramethylimidazolidin-4-one) gave the following results: (calculated/found) % carbon 28.00/27.80, % hydrogen 4.00/4.07, % nitrogen 9.33/9.39, and % bromine 53.33/52.09. […] Analysis of the product by proton NMR and infrared spectroscopy yielded the following results:
# 6.4 Grams (0.045 mole) of 2,2,5,5-tetramethylimidazolidin-4-one prepared as in example 2 was dissolved in 55 milliliters of 1 Normal sodium hydroxide solution (0.055 mole) in a 250 milliliter flask. While maintaining the reaction mixture at a temperature of 5°-10° C. by use of an ice bath and stirring, 4.0 grams (0.025 mole) of liquid bromine was added dropwise. The reaction mixture was stirred at ice bath temperature for an additional 1 hour and then for 1-2 hours at cold water bath conditions (10°-20° C.). Following cooling the mixture below 10° C. again, 50 milliliters of 1 Normal sodium hydroxide solution (0.05 mole) was added, and chlorine gas was bubbled in while stirring at 5°-10° C. until the pH reached 6-7. The 1-bromo-3-chloro-2,2,5,5-tetramethylimidazolidin-4-one product precipitated as a white solid. The product was recovered by suction filtration and purified by recrystallization from hexane. The product yield was 11.2 grams or 97% of that theoretically expected. Elemental analysis of the product gave the following results: (calculated/found) % carbon 32.88/32.68, % hydrogen 4.70/4.74, % nitrogen 10.96/10.83, % bromine 31.31/33.37, % chlorine 13.89/12.67. The rather high and low found values as compared to the theoretical values for bromine and chlorine, respectively, indicate that the product was contaminated with a small amount of 1,3-dibromo-2,2,5,5-tetramethylimidazolidin-4-one. […] Analysis of the product by proton NMR and infrared spectroscopy yielded the following results: […]
# [2] = Stability in demand-free water exposed to direct sunlight; conditions: DFW, direct sunlight, 22-24° C.
# Experimental: The stabilities of compounds 1,5, and free chlorine from calcium hypochlorite (Compound 2) in water exposed to direct sunlight were determined. Each compound at the 10 milligrams per liter total chlorine concentration level (or at the molar equivalent for total halogen for Compound 5) was dissolved in 85 milliliters of demand-free water buffered at pH 7.0 in separate 100 milliliter beakers which were placed in a temperature-controlled water bath (22°-24° C.), and the bath containing the solutions was placed on the roof of the chemistry building at Auburn University exposed to direct sunlight during August 1988. Total potential positive halogen assays were made periodically on aliquots withdrawn over a 10 hour period using the standard iodometric titration technique.
# [3] = Laboratory stability in halogen demand-free water (DFW), iodometric titration; conditions: for Percent Chlorine Remaining: DFW, 22° C.
# Experimental: The stability of 1,3-dichloro-2,2,5,5-tetramethylimidazolidin-4-one (Compound 1) in halogen demand-free water was determined at 22° C. and pH values of 4.5, 7.0, and 9.5, and the results were compared to those for free chlorine as supplied by calcium hypochlorite. The demand-free water (DFW) was prepared by chlorination of distilled, deionized water buffered to the appropriate pH followed by dechlorination (of the excess free chlorine) by exposure to direct sunlight until no free chlorine remained. This treatment insured that all halogen demand in the water was neutralized. Then Compound 1 and calcium hypochlorite were separately dissolved in identical DFW (buffered to an appropriate pH) solutions to the same final total chlorine concentrations (10 milligrams per liter potential positive chlorine). The solutions in separate flasks, which were stoppered with porous, sterile cotton plugs to allow free exchange with laboratory air, were then held at a constant temperature of 22° C. by means of a controlled water bath for a period of several weeks. Aliquots were withdrawn periodically (at least weekly), and the total positive chlorine remaining was determined in triplicate by standard iodometric titration. […]
# The stabilities of 1,3-dibromo-2,2,5,5-tetramethylimidazolidin-4-one (Compound 4) and 1-bromo-3-chloro-2,2,5,5-tetramethylimidazolidin-4-one (Compound 5) in halogen demand-free water (DFW) were determined at 22° C. and pH values of 7.0 and 9.5 using the same procedures as discussed under example 9. Given the instability of Compound 1 at pH 4.5 (example 9), it was deemed unnecessary to test compounds 4 and 5 at that pH. The two compounds were dissolved in DFW buffered to the appropriate pH in separate flasks and held at a temperature of 22° C. by means of a constant temperature bath. The starting concentrations of total potential positive halogen in the two solutions were 22.6 milligrams per liter for Compound 4 and 16.25 milligrams per liter for Compound 5; these concentrations represent the molar equivalents in total potential positive halogen to that used for Compound 1 in example 9. The solutions were analyzed in the manner described in example 9.
# [4] = Stability in synthetic halogen demand water (SDW); conditions: SDW, 4° C.
# Experimental: A synthetic halogen demand water (SDW) was prepared by mixing the following substances with demand-free water (DFW): 375 milligrams per liter of each of the inorganic salts sodium chloride, potassium chloride, calcium chloride, and magnesium chloride; 50 milligrams per liter of Bentonite clay; 30 milligrams per liter of humic acid; 0.01 percent final concentration of heat-treated horse serum; and 5×10^5 cells per milliliter of heat-killed Saccharomyces cerevisiae yeast cells. The SDW solution was buffered with 0.01 Molar borate/sodium hydroxide to a pH of 9.5 and held at 4° C. during the experiments. The conditions of high ionic strength, turbidity, and organic material, and alkaline pH at low temperature, are viewed as a worst-case scenario for disinfection applications and thus should provide the optimum test of stability for the new compounds.
# In separate flasks were dissolved compounds 1, 2, 3, and 5 to a starting concentration of 10 milligrams per liter total potential positive chlorine or its molar equivalent (16.25 milligrams per liter) in total potential positive halogen for Compound 5. Aliquots were withdrawn frequently over a period of more than 90 hours, and the percent positive halogen remaining was determined by standard iodometric titration.
# [5] = Hydrolysis equilibrium constant in demand-free water; conditions: pH 7.0, 24°±1° C.
# Experimental: The equilibrium constant for the hydrolysis reaction of 1,3-dichloro-2,2,5,5-tetramethylimidazolidin-4-one to form 1-chloro-2,2,5,5-tetramethylimidazolidin-4-one and free chlorine (Cl^+) was determined at pH 7.0 and 24°±1° C. This was accomplished by preparing a solution of the 1,3-dichloro-2,2,5,5-tetramethylimidazolidin-4-one in demand-free 0.05 molar sodium phosphate buffer (pH 7.0) and allowing the solution to equilibrate while stirring for 1 hour. Then the DPD/FAS technique (as in example 7) was used to determine the free and total chlorine concentrations in the equilibrated solution. The concentration of combined 1,3-dichloro-2,2,5,5-tetramethylimidazolidin-4-one was calculated from the difference between the measured total and free chlorine concentrations. The hydrolysis equilibrium constant was then calculated as the square of the molar free chlorine concentration divided by the molar combined chlorine concentration. For a starting molar total chlorine concentration of 4.441×10^-3 moles per liter, at equilibrium the combined chlorine concentration was 4.428×10^-3 moles per liter, and the free chlorine concentration was 1.269×10^-5 moles per liter. […] For a starting molar total chlorine concentration of 1.764×10^-3 moles per liter, at equilibrium the combined chlorine concentration was 1.759×10^-3 moles per liter, and the free chlorine concentration was 5.360×10^-6 moles per liter. […] The average equilibrium constant for the two separate determinations was thus 2.6±1.0×10^-8.
# [6] = starting total chlorine 1.764×10^-3 moles per liter
# [7] = starting total chlorine 4.441×10^-3 moles per liter
smiles,measurement,setting,value
"CC1(C)C(=O)N(Cl)C(C)(C)N1Br [1-bromo-3-chloro-2,2,5,5-tetramethylimidazolidin-4-one]",solubility in water,[1],0.193 grams in 100 milliliters of water
same,solubility,[1],1020 µg/mL
"[Ca+2].[O-]Cl.[O-]Cl [Compound 2, calcium hypochlorite, reference compound]",Percent Halogen Remaining,"[2]; pH 7.0, 3.0 hrs",26.0%
same,Percent Halogen Remaining,"[2]; pH 7.0, 5.0 hrs",6.9%
same,Percent Halogen Remaining,"[2]; pH 7.0, 10.0 hrs",0.0%
same,Percent Chlorine Remaining,"[3]; pH 4.5 (acetate), 1 week, 10080 min",91.8%
same,Percent Chlorine Remaining,"[3]; pH 4.5 (acetate), 2 weeks, 20160 min",86.2%
same,Percent Chlorine Remaining,"[3]; pH 4.5 (acetate), 3 weeks, 30240 min",80.8%
same,Percent Chlorine Remaining,"[3]; pH 4.5 (acetate), 4 weeks, 40320 min",76.4%
same,Percent Chlorine Remaining,"[3]; pH 4.5 (acetate), 5 weeks, 50400 min",71.5%
same,Percent Chlorine Remaining,"[3]; pH 4.5 (acetate), 6.14 weeks, 61891.2 min",65.0%
same,Percent Chlorine Remaining,"[3]; pH 7.0 (phosphate), 1 week, 10080 min",91.8%
same,Percent Chlorine Remaining,"[3]; pH 7.0 (phosphate), 2 weeks, 20160 min",85.0%
same,Percent Chlorine Remaining,"[3]; pH 7.0 (phosphate), 3 weeks, 30240 min",79.6%
same,Percent Chlorine Remaining,"[3]; pH 7.0 (phosphate), 4 weeks, 40320 min",70.6%
same,Percent Chlorine Remaining,"[3]; pH 7.0 (phosphate), 5 weeks, 50400 min",63.4%
same,Percent Chlorine Remaining,"[3]; pH 7.0 (phosphate), 6.14 weeks, 61891.2 min",54.7%
same,Percent Chlorine Remaining,"[3]; pH 9.5 (borate/NaOH), 1 week, 10080 min",88.9%
same,Percent Chlorine Remaining,"[3]; pH 9.5 (borate/NaOH), 2 weeks, 20160 min",79.0%
same,Percent Chlorine Remaining,"[3]; pH 9.5 (borate/NaOH), 3 weeks, 30240 min",71.2%
same,Percent Chlorine Remaining,"[3]; pH 9.5 (borate/NaOH), 4 weeks, 40320 min",60.3%
same,Percent Chlorine Remaining,"[3]; pH 9.5 (borate/NaOH), 5 weeks, 50400 min",50.1%
same,Percent Chlorine Remaining,"[3]; pH 9.5 (borate/NaOH), 6.14 weeks, 61891.2 min",38.5%
same,Percent Halogen Remaining,"[4]; pH 9.5, 0.5 hrs",51.5%
same,Percent Halogen Remaining,"[4]; pH 9.5, 1.0 hrs",46.4%
same,Percent Halogen Remaining,"[4]; pH 9.5, 2.5 hrs",39.6%
same,Percent Halogen Remaining,"[4]; pH 9.5, 4.2 hrs",39.6%
same,Percent Halogen Remaining,"[4]; pH 9.5, 7.5 hrs",36.2%
same,Percent Halogen Remaining,"[4]; pH 9.5, 24.0 hrs",31.3%
same,Percent Halogen Remaining,"[4]; pH 9.5, 76.5 hrs",21.5%
"CC1(C)C(=O)N(Cl)C(C)(C)N1Cl [1,3-dichloro-2,2,5,5-tetramethylimidazolidin-4-one]",solubility in water,[1],0.224 grams in 100 milliliters of water
same,solubility,[1],1380 µg/mL
same,average hydrolysis equilibrium constant,[5]; average of two determinations,2.6±1.0×10^-8
same,combined chlorine concentration at equilibrium,[5]; [6],1.759×10^-3 moles per liter
same,free chlorine concentration at equilibrium,[5]; [6],5.360×10^-6 moles per liter
same,hydrolysis equilibrium constant,[5]; [6],1.63×10^-8
same,combined chlorine concentration at equilibrium,[5]; [7],4.428×10^-3 moles per liter
same,free chlorine concentration at equilibrium,[5]; [7],1.269×10^-5 moles per liter
same,hydrolysis equilibrium constant,[5]; [7],3.64×10^-8
"CC1(C)C(=O)N(Br)C(C)(C)N1Br [1,3-dibromo-2,2,5,5-tetramethylimidazolidin-4-one]",solubility in water,[1],0.120 grams in 100 milliliters of water
same,solubility,[1],720 µg/mL
"CC1(C)C(=O)N(Br)C(C)(C)N1Br [Compound 4, 1,3-dibromo-2,2,5,5-tetramethylimidazolidin-4-one]",remaining at 23.52 h,"[3]; demand-free water, pH 9.5",91.4%
same,remaining at 72.24 h,"[3]; demand-free water, pH 9.5",71%
same,remaining at 168 h,"[3]; demand-free water, pH 9.5",36%
same,remaining at 336 h,"[3]; demand-free water, pH 9.5",4.8%
